The target of this assay is T1, bromodomain BRD4 (44-168), BRD4 (333-460), and BRD4 (1-477 or 44-460) (Homo sapiens, UniProt O60885).
T1 construct: BRD4(44-168), BRD4(333-460), BRD4(44-460), BRD4(1-477), O60885-1; fused on or other part: N-terminal BirA biotinylation motif, biotinylated; The TVMV-cleavable His6 tag is removed, except in some BRD4(44-460) runs detected with anti-His terbium cryptate
The experiment in a line: Time Resolved Fluorescence Resonance Energy Transfer (TR-FRET) binding assay. To be noted: one of the FRET assays described.
As to `COC1CCN(C(=O)c2ccc3c(c2)c2c(C(N)=O)cc(-c4c(C)noc4C)cc2n3Cc2ccccc2)CC1` [Example 70], the half-maximal inhibitory concentration (IC50) (in general, the midpoint of a concentration-inhibition curve) was less than 50 nM.
In the case of `CC(=O)N(CCF)c1ccc2c(c1)c1c(C(N)=O)cc(-c3c(C)noc3C)cc1n2Cc1ccccc1` [Example 134, 6-(acetyl(2-fluoroethyl)amino)-9-benzyl-2-(3,5-dimethyl-4-isoxazolyl)-9H-carbazole-4-carboxamide] it was less than 50 nM; in that of `Cc1noc(C)c1-c1cc(C(N)=O)c2c3cc(N)ccc3n(Cc3ccccc3)c2c1` [Example 135, 6-amino-9-benzyl-2-(3,5-dimethyl-4-isoxazolyl)-9H-carbazole-4-carboxamide], less than 50 nM.
In the case of `CNC(=O)c1cc(-c2c(C)noc2C)cc2c1c1cc(N3CCCOC3=O)ccc1n2Cc1ccccc1` [Example 169, 9-benzyl-2-(3,5-dimethyl-4-isoxazolyl)-N-methyl-6-(2-oxo-1,3-oxazinan-3-yl)-9H-carbazole-4-carboxamide] it was less than 50 nM.
The result for `Cc1noc(C)c1-c1cc(C(N)=O)c2c3cc(N(CCO)CCO)ccc3n(Cc3ccccc3)c2c1` [Example 140, 9-benzyl-6-(bis(2-hydroxyethyl)amino)-2-(3,5-dimethyl-4-isoxazolyl)-9H-carbazole-4-carboxamide] reads less than 50 nM; that for `Cc1noc(C)c1-c1ccc2c(c1)[nH]c1ccc(C(=O)N3CCOCC3)cc12` [Example 1, 2-(3,5-dimethyl-4-isoxazolyl)-6-(4-morpholinylcarbonyl)-9H-carbazole], less than 500 nM; that for `Cc1noc(C)c1-c1cc(C(N)=O)c2c3cc(N4CCOC4=O)ccc3n(Cc3ccc(Cl)cc3)c2c1` [Example 162, 9-(4-chlorobenzyl)-2-(3,5-dimethyl-4-isoxazolyl)-6-(2-oxo-1,3-oxazolidin-3-yl)-9H-carbazole-4-carboxamide], less than 50 nM.
The compound `Cc1noc(C)c1-c1cc(C(N)=O)c2c3cc(C(=O)N4CCC(CO)CC4)ccc3n(Cc3ccccc3)c2c1` [Example 68] displayed a 50% inhibitory concentration (IC50) of less than 50 nM.
The compound `Cc1noc(C)c1-c1cc(C(N)=O)c2c3ccc(C(=O)N4CCOCC4)cc3n(Cc3ccccc3)c2c1` [Example 188, 9-Benzyl-2-(3,5-dimethyl-4-isoxazolyl)-7-(morpholine-4-carbonyl)-9H-carbazole-4-carboxamide] displayed an IC50 of less than 50 nM.
In the case of `Cc1noc(C)c1-c1cc(C(N)=O)c2c3cc(S(C)(=O)=O)ccc3n(Cc3ccccc3)c2c1` [Example 181, 9-benzyl-2-(3,5-dimethyl-4-isoxazolyl)-6-(methylsulfonyl)-9H-carbazole-4-carboxamide] it was less than 50 nM.
The result for `CCC1CCN(C(=O)c2ccc3c(c2)c2c(C(N)=O)cc(-c4c(C)noc4C)cc2n3Cc2ccccc2)CC1` [Example 50] reads less than 50 nM; that for `Cc1noc(C)c1-c1cc(C(N)=O)c2c3cc(NCC(F)F)ccc3n(Cc3ccccc3)c2c1` [Example 139, 9-benzyl-6-((2,2-difluoroethyl)amino)-2-(3,5-dimethyl-4-isoxazolyl)-9H-carbazole-4-carboxamide], less than 50 nM.
The result for `CNC(=O)c1cc(-c2c(C)noc2C)cc2c1c1cc(C(=O)N3CC(F)C3)ccc1n2Cc1c(F)cccc1F` [Example 105] reads less than 50 nM; that for `Cc1noc(C)c1-c1ccc2c3cc(C(=O)N4CC(C)OC(C)C4)ccc3n(Cc3ccccc3)c2c1` (centres unmarked) [Example 9], less than 50 nM.
For the compound `Cc1noc(C)c1-c1cc(C(N)=O)c2c3cc(C(=O)N4CC(C)OC(C)C4)ccc3n(Cc3ccccc3F)c2c1` (centres unmarked) [Example 31], the IC50 was less than 50 nM.
The result for `Cc1noc(C)c1-c1cc(C(N)=O)c2c3ccc(C(=O)N4CCOCC4)cc3n(C(c3ccccc3)c3ccccc3)c2c1` [Example 196, 2-(3,5-Dimethyl-4-isoxazolyl)-9-(diphenylmethyl)-7-(4-morpholinylcarbonyl)-9H-carbazole-4-carboxamide] reads less than 50 nM; that for `CNC(=O)c1cc(-c2c(C)noc2C)cc2c1c1cc(C(=O)N3CC(F)C3)ccc1n2Cc1cccc(F)c1` [Example 104], less than 50 nM.
`CNC(=O)c1cc(-c2c(C)noc2C)cc2c1c1cc(C(=O)N3CC(F)C3)ccc1n2CC1CCC1` [Example 114] displayed a half-inhibitory concentration (IC50) of less than 50 nM.
The result for `Cc1noc(C)c1-c1cc(C(N)=O)c2c3cc(C(=O)N4CC(F)C4)ccc3n(C(C)c3ccc(Cl)cc3)c2c1` (centres unmarked) [Example 94, 9-(1-(4-chlorophenyl)ethyl)-2-(3,5-dimethyl-4-isoxazolyl)-6-((3-fluoro-1-azetidinyl)carbonyl)-9H-carbazole-4-carboxamide] reads less than 50 nM; that for `Cc1noc(C)c1-c1cc(C(N)=O)c2c3cc(C(=O)N4CC(F)C4)ccc3n(Cc3ccc(F)cc3)c2c1` [Example 93], less than 50 nM.
In the case of `COc1ccc2c(c1)c1c(C(N)=O)cc(-c3c(C)noc3C)cc1n2C(C)c1ccccc1` (centres unmarked) [Example 176, 2-(3,5-dimethyl-4-isoxazolyl)-6-methoxy-9-(1-phenylethyl)-9H-carbazole-4-carboxamide] it was less than 50 nM.
The result for `Cc1noc(C)c1-c1cc(C(N)=O)c2c3cc(C(=O)N4CC(C)OC(C)C4)ccc3n(Cc3ccccc3C#N)c2c1` (centres unmarked) [Example 43] reads less than 50 nM; that for `CNC(=O)c1cc(-c2c(C)noc2C)cc2c1c1cc(C(=O)N3C[C@@H](C)O[C@@H](C)C3)ccc1n2Cc1ccccc1` [Example 117, 9-benzyl-2-(3,5-dimethylisoxazol-4-yl)-6-(cis-2,6-dimethylmorpholine-4-carbonyl)-N-methyl-9H-carbazole-4-carboxamide], less than 50 nM; that for `CNC(=O)c1cc(-c2c(C)noc2C)cc2c1c1cc(C(=O)N3CC(F)C3)ccc1n2Cc1ccc(F)cc1F` [Example 106], less than 500 nM.
In turn, `Cc1noc(C)c1-c1cc(C(N)=O)c2c3ccc(C(C)(C)O)c(F)c3n(C(CCC(F)(F)F)c3ccccc3)c2c1` (single isomer, unassigned) [Example 231, 2-(dimethyl-1,2-oxazol-4-yl)-8-fluoro-7-(2-hydroxypropan-2-yl)-9-[4,4,4-trifluoro-1-phenylbutyl]-9H-carbazole-4-carboxamide] yielded a 50% inhibitory concentration (IC50) of less than 50 nM.
The result for `Cc1noc(C)c1-c1cc(C#N)c2c3ccc(C(C)(C)O)cc3n(Cc3ccccc3)c2c1` [Example 184, 9-benzyl-2-(3,5-dimethyl-4-isoxazolyl)-7-(1-hydroxy-1-methylethyl)-9H-carbazole-4-carbonitrile] reads less than 500 nM; that for `Cc1noc(C)c1-c1cc(C(N)=O)c2c3cc(NC(=O)C4CCCC4)ccc3n(Cc3ccccc3)c2c1` [Example 149, 9-benzyl-6-((cyclopentylcarbonyl)amino)-2-(3,5-dimethyl-4-isoxazolyl)-9H-carbazole-4-carboxamide], less than 50 nM.
The result for `Cc1noc(C)c1-c1cc(C(N)=O)c2c3ccc(C(C)(C)O)cc3n(C(c3ccc(F)cc3)C3CCOCC3)c2c1` (single isomer, unassigned) [Example 219, 2-(Dimethyl-1,2-oxazol-4-yl)-9-[(4-fluorophenyl)(oxan-4-yl)methyl]-7-(2-hydroxypropan-2-yl)-9H-carbazole-4-carboxamide] reads less than 50 nM; that for `CNC(=O)c1cc(-c2c(C)noc2C)cc2c1c1cc(N3CCCOC3=O)ccc1n2Cc1ccc(F)cc1` [Example 171, 2-(3,5-dimethyl-4-isoxazolyl)-9-(4-fluorobenzyl)-N-methyl-6-(2-oxo-1,3-oxazinan-3-yl)-9H-carbazole-4-carboxamide], less than 50 nM; that for `Cc1noc(C)c1-c1cc(C(N)=O)c2c3ccc(C(=O)N(C)C)cc3n(C(c3ccccc3)c3ccccc3)c2c1` [Example 195, 7-(3,5-Dimethyl-4-isoxazolyl)-9-(diphenylmethyl)-N˜2˜,N˜2˜-dimethyl-9H-carbazole-2,5-dicarboxamide], less than 50 nM.
The result for `CNC(=O)c1cc(-c2c(C)noc2C)cc2c1c1cc(N(C)C(C)=O)ccc1n2Cc1ccccc1` [Example 132, 6-(acetyl(methyl)amino)-9-benzyl-2-(3,5-dimethyl-4-isoxazolyl)-N-methyl-9H-carbazole-4-carboxamide] reads less than 50 nM; that for `COC1CN(C(=O)c2ccc3c(c2)c2c(C(N)=O)cc(-c4c(C)noc4C)cc2n3Cc2ccccc2)C1` [Example 52], less than 50 nM.
In turn, `Cc1noc(C)c1-c1cc(C(N)=O)c2c3cc(C(=O)N4CCOC(C)C4)ccc3n(Cc3ccccc3)c2c1` (centres unmarked) [Example 55] gave a half-maximal inhibitory concentration (IC50) of less than 50 nM.
The result for `Cc1noc(C)c1-c1cc(C(N)=O)c2c3ccc(C(C)(C)O)cc3n(C[C@@]3(F)C[C@@H]4CC[C@H]3O4)c2c1` (relative stereo) [Example 225, rel-2-(dimethyl-1,2-oxazol-4-yl)-9-{[(1R,2S,4S)-2-fluoro-7-oxabicyclo[2.2.1]heptan-2-yl]methyl}-7-(2-hydroxypropan-2-yl)-9H-carbazole-4-carboxamide] reads less than 50 nM; that for `Cc1noc(C)c1-c1cc(C(N)=O)c2c3cc(C(=O)N4CC(C)OC(C)C4)ccc3n(Cc3cccc(Cl)c3)c2c1` (centres unmarked) [Example 34], less than 50 nM.
Compound `Cc1noc(C)c1-c1cc(C(N)=O)c2c3cc(N4CCCOC4=O)ccc3n(C(C)c3ccccc3)c2c1` (centres unmarked) [Example 158, 2-(3,5-dimethyl-4-isoxazolyl)-6-(2-oxo-1,3-oxazinan-3-yl)-9-(1-phenylethyl)-9H-carbazole-4-carboxamide] returned an IC50 of less than 50 nM.
The result for `Cc1noc(C)c1-c1cc(C(N)=O)c2c3cc(C(=O)N4CC(C)OC(C)C4)ccc3n(Cc3cscn3)c2c1` (centres unmarked) [Example 27] reads less than 50 nM.
In the case of `Cc1noc(C)c1-c1cc(C(N)=O)c2c3ccc(C(C)(C)O)cc3n(C(c3ccccc3)C3(F)CCC3)c2c1` (single isomer, unassigned) [Example 221, 2-(Dimethyl-1,2-oxazol-4-yl)-9-[(1-fluorocyclobutyl)(phenyl)methyl]-7-(2-hydroxypropan-2-yl)-9H-carbazole-4-carboxamide] it was less than 50 nM.

These data come from patent US9492460B2, “Carbazole compounds useful as bromodomain inhibitors” (Bristol-Myers Squibb Company, priority 2013, dated 2016).
